# Results as given in PMC6435658, “Investigation into the Molecular Mechanisms underlying the Anti-proliferative and Anti-tumorigenesis activities of Diosmetin against HCT-116 Human Colorectal Cancer” (Scientific Reports, 2019).
# What was measured:
# MCF-10 = system: MCF-10; design: method as in PMID 19424633, PMID 27176768, PMID 26847170, PMID 20183323; conditions: MCF-10 non-cancerous cells, 24 h; ref [10],[13],[15],[47]; cited from earlier work
# caspase 8 = assay: Caspase-Glo 8 bioluminescent assay; type: cell-based, human; conditions: HCT-116, 24 h, 48 h, 72 h, time dependent
# Experimental: (§1) To assess the effect of Dis on caspase cascades in treated cells, activities of caspase-Glo 3/7, caspase-Glo 8 and caspase-Glo 9 assays (Promega, Madison, WI, USA) were performed. Briefly, HCT-116 cells with the density of 10^4 cells/well were seeded in 96 well-plates. Cells were treated with Dis for 24 h, 48 h and 72 h. This assay was performed in triplicates for each time point. A total of 6 wells were preserved for samples without cells but with media and reagents as the blank samples, and for the untreated cells as negative control. At the end of incubation time, 100 µl caspase-glo mixture were added to each well and incubated for 1 h in the dark according to the manufacturer’s instructions. Optical density was measured via multimode microplate reader (Tecan Infinite, Männedorf, Switzerland).
# caspase 9 = assay: Caspase-Glo 9 bioluminescent assay; type: cell-based, human; conditions: HCT-116, 24 h, 48 h, 72 h, time dependent
# Experimental: as §1
structure (smiles),measurement,setting,value
"COc1ccc(-c2cc(=O)c3c(O)cc(O)cc3o2)cc1O [Dis, Diosmetin]",IC50,MCF-10,30 µg/mL
same,cleavage of caspase 8,caspase 8,significantly increased
same,cleavage of caspase 9,caspase 9,significantly increased
